Consider 10 molecules from PubChem BioAssay AID1259411 (Chemical Carcinogenesis Research Information System (CCRIS), 2018).

The subject of the series is rodent carcinogenicity bioassays, tumor incidence. The experiment in a line: CCRIS carcinogenicity studies. The procedure, abridged:
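NCI-built, expert-reviewed records of carcinogenicity and related test outcomes (mutagenicity, tumor promotion/inhibition) compiled from published and report sources, historical span 1985-2011, not updated.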

Calls of active or inactive are those of the source. No rule for the calls is given here.

Regarding `CCCNC(=O)NS(=O)(=O)c1ccc(Cl)cc1`, the carcinogen call reads like this: (Species: MOUSE, Strain/Sex: B6C3F1/FEMALE, Route: ORAL, Dose: 0, 3317, 6635 PPM IN DIET, Dose: 0, 3317, 6635 PPM IN DIET) “inactive; negative”; (Species: MOUSE, Strain/Sex: B6C3F1/MALE, Route: ORAL, Dose: 0, 3317, 6635 PPM IN DIET, Dose: 0, 3317, 6635 PPM IN DIET) “inactive; negative”; (Species: RAT, Strain/Sex: F344/FEMALE, Route: ORAL, Dose: 0, 3000, 6000 PPM IN DIET, Dose: 0, 3000, 6000 PPM IN DIET) “inactive; negative”; (Species: RAT, Strain/Sex: F344/MALE, Route: ORAL, Dose: 0, 3000, 6000 PPM IN DIET, Dose: 0, 3000, 6000 PPM IN DIET) “inactive; negative”.

As to `CCCCCCCCCCCCCC(=O)ON(C(C)=O)c1ccc2c(c1)Cc1ccccc1-2`, under “Species: RAT, Strain/Sex: F344/MALE, Route: SUBCUTANEOUS, Dose: 10.6 UMOL IN 0.2 ML DMSO-TRIOCTANOIN 1/WK FOR 6 WK, Tumor Site: Type of Lesion: INJECTION SITE: FIBROSARCOMA OR FIBROMYOSARCOMA OR FIBROLIPOSARCOMA”, the carcinogen call was “active; positive”.

In the case of `C=[N+]=[N-]`, the carcinogen call is, setting by setting: (Species: MOUSE, Route: INHALATION, DERMAL, Tumor Site: Type of Lesion: LUNG) “active; positive”; (Species: RAT, Route: INHALATION, Tumor Site: Type of Lesion: LUNG) “active; positive”.

Take `CCCCCCN(C)N=O`: the carcinogen call runs as follows: (Species: HAMSTER, Strain/Sex: SYRIAN/FEMALE, Route: GAVAGE, Dose: 0, 6.2 MG/KG 1/WK FOR 50 WK (TOTAL DOSE: 0; 2.1 MMOL) (STUDY DURATION: LIFETIME), Dose: 0, 6.2 MG/KG 1/WK FOR 50 WK (TOTAL DOSE: 0; 2.1 MMOL) (STUDY DURATION: LIFETIME), Tumor Site: Type of Lesion: LIVER: CHOLANGIOMA, LUNG: ALVEOLAR/BRONCHIAL CARCINOMA, ALVEOLAR/BRONCHIAL ADENOMA, URINARY BLADDER: TRANSITIONAL CELL C, Tumor Site: Type of Lesion: LIVER: CHOLANGIOMA, LUNG: ALVEOLAR/BRONCHIAL CARCINOMA, ALVEOLAR/BRONCHIAL ADENOMA, URINARY BLADDER: TRANSITIONAL CELL C) “active; positive”; (Species: HAMSTER, Strain/Sex: SYRIAN/MALE, Route: GAVAGE, Dose: 0, 6.2 MG/KG 1/WK FOR 50 WK (TOTAL DOSE: 0; 2.1 MMOL) (STUDY DURATION: LIFETIME), Dose: 0, 6.2 MG/KG 1/WK FOR 50 WK (TOTAL DOSE: 0; 2.1 MMOL) (STUDY DURATION: LIFETIME), Tumor Site: Type of Lesion: LIVER: HEPATOCELLULAR ADENOMA, CHOLANGIOMA, HEMANGIOSARCOMA, LUNG: ALVEOLAR/ BRONCHIAL ADENOMA, NASAL MUCOSA: CARCINOMA,, Tumor Site: Type of Lesion: LIVER: HEPATOCELLULAR ADENOMA, CHOLANGIOMA, HEMANGIOSARCOMA, LUNG: ALVEOLAR/ BRONCHIAL ADENOMA, NASAL MUCOSA: CARCINOMA) “active; positive”; (Species: RAT, Strain/Sex: F344/FEMALE, Route: INTRAVESICULAR, Dose: 0, 3.75 MG IN 0.4 ML ETHANOL: DEIONIZED WATER (1:3) 2/WK FOR 30 WK (TOTAL DOSE 1.6 MMOL) (STUDY DURATION: LIFESPAN), Tumor Site: Type of Lesion: BLADDER: TUMOR, LUNG: SQUAMOUS CELL CARCINOMA, UTERUS: TUMOR, Tumor Site: Type of Lesion: BLADDER: TUMOR, LUNG: SQUAMOUS CELL CARCINOMA, UTERUS: TUMOR) “active; positive”.

For `CO[C@H]1/C=C/O[C@@]2(C)Oc3c(C)c(O)c4c(O)c(c(C=NN5CCN(C)CC5)c(O)c4c3C2=O)NC(=O)/C(C)=C\C=C\[C@H](C)[C@H](O)[C@@H](C)[C@@H](O)[C@@H](C)[C@H](OC(C)=O)[C@@H]1C`, the carcinogen call (Species: MOUSE, Strain/Sex: C3F/FEMALE, Route: ORAL, Dose: 0.01, 0.03 0.06% IN DRINKING WATER WITH 0.05% SODIUM ASCORBATE FOR 60 WK, Tumor Site: Type of Lesion: LIVER: BENIGN TUMOR OR MALIGNANT TUMOR) was “active; positive”.

On to `CCC[CH2][Sn]([CH2]CCC)([O]C(C)=O)[O]C(C)=O`, for which the carcinogen call runs as follows: (Species: MOUSE, Strain/Sex: B6C3F1/FEMALE, Route: ORAL, Dose: 0, 76, 152 PPM IN DIET, TWA, Dose: 0, 76, 152 PPM IN DIET, TWA) “inactive; negative”; (Species: MOUSE, Strain/Sex: B6C3F1/MALE, Route: ORAL, Dose: 0, 76, 152 PPM IN DIET, TWA, Dose: 0, 76, 152 PPM IN DIET, TWA) “inactive; negative”; (Species: RAT, Strain/Sex: F344/MALE, Route: ORAL, Dose: 0, 66.5, 133 PPM IN DIET, TWA, Dose: 0, 66.5, 133 PPM IN DIET, TWA) “inactive; negative”.

On to `Brc1cc(Br)c2cccnc2c1`, for which the carcinogen call (Species: RAT, Strain/Sex: F344/FEMALE, Route: ORAL, Dose: 0.1% IN DIET FOR 2 YR) is “inactive; negative”.

Consider `CC(C)O`, for which the carcinogen call reads like this: (Species: MOUSE, Strain/Sex: CD-1/FEMALE, Route: INHALATION, Dose: 0, 500, 2500, 5000 PPM 6 HR/D 5 D/WK FOR 78 WK (STUDY DURATION: 78 WK), Dose: 0, 500, 2500, 5000 PPM 6 HR/D 5 D/WK FOR 78 WK (STUDY DURATION: 78 WK)) “inactive; negative”; (Species: MOUSE, Strain/Sex: CD-1/MALE, Route: INHALATION, Dose: 0, 500, 2500, 5000 PPM 6 HR/D 5 D/WK FOR 78 WK (STUDY DURATION: 78 WK), Dose: 0, 500, 2500, 5000 PPM 6 HR/D 5 D/WK FOR 78 WK (STUDY DURATION: 78 WK)) “inactive; negative”; (Species: RAT, Strain/Sex: F344/FEMALE, Route: INHALATION, Dose: 0, 500, 2500, 5000 PPM 6 HR/D 5 D/WK FOR 104 WK (STUDY DURATION: 104 WK), Dose: 0, 500, 2500, 5000 PPM 6 HR/D 5 D/WK FOR 104 WK (STUDY DURATION: 104 WK)) “inactive; negative”; (Species: RAT, Strain/Sex: F344/MALE, Route: INHALATION, Dose: 0, 500, 2500, 5000 PPM 6 HR/D 5 D/WK FOR 104 WK (STUDY DURATION: 104 WK), Dose: 0, 500, 2500, 5000 PPM 6 HR/D 5 D/WK FOR 104 WK (STUDY DURATION: 104 WK)) “inactive; negative”.

Regarding `O=[N+]([O-])c1ccc2ccc3c(O)ccc4ccc1c2c43`, the carcinogen call reads like this: (Species: MOUSE, Strain/Sex: B6C3F1/FEMALE, Route: INTRAPERITONEAL, Dose: 0, 7 NMOL (TOTAL DOSE), 1/7, 2/7 AND 4/7 OF THE TOTAL DOSE ADMINISTERED WITHIN 24 HR OF BIRTH AND AT 8 AND 15 D OF AGE) “inactive; negative”; (Species: MOUSE, Strain/Sex: B6C3F1/MALE, Route: INTRAPERITONEAL, Dose: 0, 7 NMOL (TOTAL DOSE), 1/7, 2/7 AND 4/7 OF THE TOTAL DOSE ADMINISTERED WITHIN 24 HR OF BIRTH AND AT 8 AND 15 D OF AGE) “inactive; negative”.

`c1ccc(N=Nc2ccccc2)cc1`: the carcinogen call (Species: MOUSE, Strain/Sex: B6C3F1/FEMALE, Route: ORAL, Dose: 0, 208, 545 PPM IN DIET, TWA, Dose: 0, 208, 545 PPM IN DIET, TWA) was “inactive; negative”; the carcinogen call (Species: MOUSE, Strain/Sex: B6C3F1/MALE, Route: ORAL, Dose: 0, 200, 400 PPM IN DIET, Dose: 0, 200, 400 PPM IN DIET) was “inactive; negative”; the carcinogen call (Species: RAT, Strain/Sex: F344/FEMALE, Route: ORAL, Dose: 0, 200, 400 PPM IN DIET FOR 106 WK (STUDY DURATION: 106 WK), Dose: 0, 200, 400 PPM IN DIET FOR 106 WK (STUDY DURATION: 106 WK), Tumor Site: Type of Lesion: SPLEEN OR PERITONEUM: SARCOMA) is “active; positive”; the carcinogen call (Species: RAT, Strain/Sex: F344/FEMALE, Route: ORAL, Dose: 0, 200, 400 PPM IN DIET, Dose: 0, 200, 400 PPM IN DIET, Tumor Site: Type of Lesion: SPLEEN: FIBROSARCOMA, OSTEOSARCOMA, PERITONEAL CAVITY: SARCOMA) was “active; positive”; the carcinogen call (Species: RAT, Strain/Sex: F344/MALE, Route: ORAL, Dose: 0, 200, 400 PPM IN DIET FOR 106 WK (STUDY DURATION: 106 WK), Dose: 0, 200, 400 PPM IN DIET FOR 106 WK (STUDY DURATION: 106 WK), Tumor Site: Type of Lesion: SPLEEN OR PERITONEUM: SARCOMA) is “active; positive”; the carcinogen call (Species: RAT, Strain/Sex: F344/MALE, Route: ORAL, Dose: 0, 200, 400 PPM IN DIET, Dose: 0, 200, 400 PPM IN DIET, Tumor Site: Type of Lesion: SPLEEN: FIBROSARCOMA, PERITONEAL CAVITY: SARCOMA) is “active; positive”.
